# Patent publication US20080096852A1, “USE OF OCULOSURFACE SELECTIVE GLUCOCORTICOID IN THE TREATMENT OF DRY EYE” (Alcon,Inc., priority 2002, published 2008)
# Columns and labels:
# [1] = tested on: desiccation-induced corneal injury in rabbits; assay: Desiccation-induced corneal injury (methylene blue uptake) after lacrimal gland inflammation; format: in vivo, New Zealand white rabbits; settings: rabbit
# Procedure: The ability of low doses of rimexolone to alleviate dry eye conditions was evaluated. […] The experimental procedures are described below. In a separate group of animals, susceptibility to desiccation-induced corneal injury was assessed following the induction of lacrimal gland inflammation. Desiccation was initiated by placing the rabbits in a low humidity environment continuously for up to three days. Corneal injury was assessed by determining the uptake of the vital dye, methylene blue. Under general anesthesia, the ocular surface was bathed in a 1% solution of methylene blue for five minutes and then washed. The animals were euthanized, eyes were excised and an 8 mm-diameter section of cornea was isolated and extracted overnight. The concentration of extracted dye was determined spectrophotometrically ([…]). Protection of the cornea is indicated by a lesser uptake of dye in drug treated animals relative to that in vehicle treated rabbits. For both TBUT and corneal injury determinations, dosing (QID) was initiated 24-hours prior to inducing inflammation and was continued for the duration of the study. A second dose-response study was conducted using the procedures described in Example 2 above.
# [2] = tested on: dry eye in patients with autoimmune connective tissue disease; settings: human patients; suspensions 0.005%, 0.05% and 0.1%; one drop each eye four times per day for six weeks
# Source text: Three different suspensions, containing rimexolone at concentrations of 0.005%, 0.05% and 0.1%, respectively, were utilized in the study. A fourth formulation, which was identical to the three rimexolone suspensions except for the elimination of rimexolone, was utilized as a control (i.e., placebo).
# The patients in each group administered one drop of the respective formulations to each eye four times per day for six weeks. Following the end of the six week drug administration period, the patients' symptoms were evaluated.
# [3] = tested on: dry eye induced in New Zealand white rabbits; assay: Tear breakup time (TBUT) in rabbit dry eye model (lacrimal gland inflammation); format: in vivo
# Procedure: The ability of low doses of rimexolone to alleviate dry eye conditions was evaluated. […] The experimental procedures are described below. Dry eye was induced in New Zealand white rabbits (approximately 2 kg) by eliciting bilateral inflammation of the lacrimal glands. Tear function was assessed by measuring tear breakup time (“TBUT”) daily for three days, following the induction of dry eye. TBUT was determined by instilling […] into the cul de sac and manually blinking the lids to distribute the fluorescein within the tear film. Under slit lamp observation, the eye was held open and the time to tear film breakup recorded. Efficacy was determined by comparing TBUT relative to pre-inflammation baseline values in drug and vehicle treated animals. In a separate group of animals, susceptibility to desiccation-induced corneal injury was assessed following the induction of lacrimal gland inflammation. Desiccation was initiated by placing the rabbits in a low humidity environment continuously for up to three days. Corneal injury was assessed by determining the uptake of the vital dye, methylene blue. Under general anesthesia, the ocular surface was bathed in a 1% solution of methylene blue for five minutes and then washed. The animals were euthanized, eyes were excised and an 8 mm-diameter section of cornea was isolated and extracted overnight. The concentration of extracted dye was determined spectrophotometrically ([…]). Protection of the cornea is indicated by a lesser uptake of dye in drug treated animals relative to that in vehicle treated rabbits. For both TBUT and corneal injury determinations, dosing (QID) was initiated 24-hours prior to inducing inflammation and was continued for the duration of the study. A second dose-response study was conducted using the procedures described in Example 2 above.
# [4] = Example 2, tested 0.005%, 0.01%, 0.05 and 0.1%
# [5] = Example 3 (second dose-response study)
smiles,measurement,setting,value
CCC(=O)[C@@]1(C)[C@H](C)C[C@H]2[C@@H]3CCC4=CC(=O)C=C[C@]4(C)[C@H]3[C@@H](O)C[C@@]21C [rimexolone],inhibition of desiccation-induced corneal injury (peak efficacy),"[1]; Example 2, rimexolone 0.1% suspension, QID, FIG. 2",74 % inhibition
same,maximally effective concentration for prevention of desiccation-induced corneal staining,[1]; [4],0.1%
same,maximally effective concentration for prevention of desiccation-induced corneal staining,[1]; [5],0.1%
same,inhibition of corneal staining,"[1]; Example 3 (second dose-response study), rimexolone 0.1%, FIG. 4",77%
same,dry eye symptoms (discomfort) versus vehicle/placebo,[2],less dry eye symptoms
same,increases in intraocular pressure,[2],did not exhibit any clinically relevant increases in intraocular pressure
same,TBUT expressed as percent of baseline on day three,"[3]; Example 2, rimexolone 0.1% suspension, QID, FIG. 1",66 % of baseline
same,maximally effective concentration for restoration of TBUT,[3]; [4],0.1%
same,maximally effective concentration for restoration of TBUT,[3]; [5],0.1%
same,"TBUT restored, percent of baseline on day three","[3]; Example 3 (second dose-response study), rimexolone 0.1%, FIG. 3",71 % of baseline
